Measured values as given in patent publication US11332459B2 (TEIJIN PHARMA LIMITED, priority 2017, dated 2022).

Biological target: T1, human TRPC6 (Homo sapiens, UniProt Q9Y210)
T1 construct: expressed in transfected cells
T1 sequence (Q9Y210 1-931): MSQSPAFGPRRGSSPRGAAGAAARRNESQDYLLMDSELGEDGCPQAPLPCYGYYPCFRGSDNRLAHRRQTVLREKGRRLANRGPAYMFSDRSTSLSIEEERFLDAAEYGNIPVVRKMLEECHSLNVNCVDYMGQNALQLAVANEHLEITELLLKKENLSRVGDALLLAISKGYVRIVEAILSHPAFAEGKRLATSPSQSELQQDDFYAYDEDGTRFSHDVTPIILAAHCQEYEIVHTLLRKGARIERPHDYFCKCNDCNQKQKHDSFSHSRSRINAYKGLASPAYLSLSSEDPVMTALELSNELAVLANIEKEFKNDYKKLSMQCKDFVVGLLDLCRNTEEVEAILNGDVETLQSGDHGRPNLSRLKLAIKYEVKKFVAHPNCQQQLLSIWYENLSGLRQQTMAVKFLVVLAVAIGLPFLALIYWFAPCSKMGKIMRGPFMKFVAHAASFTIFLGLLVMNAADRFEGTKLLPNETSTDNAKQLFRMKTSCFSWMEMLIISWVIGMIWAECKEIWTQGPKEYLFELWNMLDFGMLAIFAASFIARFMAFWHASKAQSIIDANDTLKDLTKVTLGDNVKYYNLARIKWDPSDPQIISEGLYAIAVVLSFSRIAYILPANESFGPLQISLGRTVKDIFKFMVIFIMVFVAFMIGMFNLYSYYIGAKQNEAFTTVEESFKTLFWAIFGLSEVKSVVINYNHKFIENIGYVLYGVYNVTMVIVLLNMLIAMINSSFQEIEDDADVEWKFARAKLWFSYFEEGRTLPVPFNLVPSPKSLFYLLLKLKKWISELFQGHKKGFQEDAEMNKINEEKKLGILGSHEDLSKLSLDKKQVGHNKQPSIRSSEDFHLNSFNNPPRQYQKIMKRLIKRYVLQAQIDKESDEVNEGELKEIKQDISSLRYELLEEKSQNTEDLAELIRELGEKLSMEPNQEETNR
Assay: TRPC6 calcium flux assay (FLIPR, OAG-stimulated calcium influx)
Format: cell-based
Conditions: HEK293 cells stably transfected with human TRPC6, read-out: hTRPC6 Potency
How it was run: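 IC50 derived by plotting background-corrected peak fluorescence (180 s window, normalized to OAG-triggered signal vs buffer) against dose. Stable human TRPC6 HEK293 line was dye-loaded, exposed to compound 25 min, then challenged with 50 uM final OAG in 2 mM Ca2+ HEPES buffer pH 7.2, 0.5% DMSO.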

| IC50 [nM] | SMILES |
| --- | --- |
| 579 | Cc1nc(-c2ccccc2)sc1Cn1c(N2CC[C@@H](F)[C@H](N)C2)nc2ccc(F)cc21 [Example 585, (3R,4R)-4-fluoro-1-(6-fluoro-1-((4-methyl-2-phenylthiazol-5-yl)methyl)-1H-benzo[d]imidazol-2-yl)piperidin-3-amine] |
| 765 | N[C@@H]1CN(c2nc3cc(F)ccc3n2Cc2nnc(C(F)F)s2)CC[C@H]1F [Example 587, (3R,4R)-1-(1-((5-(difluoromethyl)-1,3,4-thiadiazol-2-yl)methyl)-5-fluoro-1H-benzo[d]imidazol-2-yl)-4-fluoropiperidin-3-amine] |
| 1010 | Cc1nc(C)c(Cn2c(N3CC[C@@H](F)[C@H](N)C3)nc3ccc(F)cc32)s1 [Example 589, (3R,4R)-1-(1-((2,4-dimethylthiazol-5-yl)methyl)-6-fluoro-1H-benzo[d]imidazol-2-yl)-4-fluoropiperidin-3-amine] |
| 1730 | CN(C)C(=O)Cn1c(N2CC[C@@H](F)[C@H](N)C2)nc2cc(C(F)(F)F)ccc21 [Example 592, 2-(2-((3R,4R)-3-amino-4-fluoropiperidin-1-yl)-5-(trifluoromethyl)-1H-benzo[d]imidazol-1-yl)-N,N-dimethylacetamide] |
| > 3750 | CS(=O)(=O)c1ccc(Cn2c(N3CC[C@@H](F)[C@H](N)C3)nc3cc(F)cc(F)c32)nc1 [Example 595, (3R,4R)-1-(5,7-difluoro-1-((5-(methylsulfonyl)pyridin-2-yl)methyl)-1H-benzo[d]imidazol-2-yl)-4-fluoropiperidin-3-amine] |

Second part, the compound before the results:

| SMILES | IC50 [nM] |
| --- | --- |
| N[C@@H]1CN(c2nc3cc(F)ccc3n2Cc2nc(C(F)(F)F)no2)CC[C@H]1F [Example 584, (3R,4R)-4-fluoro-1-(5-fluoro-1-((3-(trifluoromethyl)-1,2,4-oxadiazol-5-yl)methyl)-1H-benzo[d]imidazol-2-yl)piperidin-3-amine] | 546 |
| Cc1nnc(Cn2c(N3CC[C@@H](F)[C@H](N)C3)nc3cc(F)c(F)cc32)n1C [Example 586, (3R,4R)-1-(1-((4,5-dimethyl-4H-1,2,4-triazol-3-yl)methyl)-5,6-difluoro-1H-benzo[d]imidazol-2-yl)-4-fluoropiperidin-3-amine] | 747 |
| Cc1nnc(Cn2c(N3CCC(F)(F)[C@H](N)C3)nc3ccc(F)cc32)s1 [Example 588, (R)-4,4-difluoro-1-(6-fluoro-1-((5-methyl-1,3,4-thiadiazol-2-yl)methyl)-1H-benzo[d]imidazol-2-yl)piperidin-3-amine] | 811 |
| Cc1nnc(Cn2c(N3CC[C@@H](F)[C@H](N)C3)nc3cc(F)cnc32)s1 [Example 590, (3R,4R)-4-fluoro-1-(6-fluoro-3-((5-methyl-1,3,4-thiadiazol-2-yl)methyl)-3H-imidazo[4,5-b]pyridin-2-yl)piperidin-3-amine] | 1440 |
| CN(CC(F)(F)F)C(=O)Cn1c(N2CC[C@@H](F)[C@H](N)C2)nc2cc(F)cc(F)c21 [Example 591, 2-(2-((3R,4R)-3-amino-4-fluoropiperidin-1-yl)-5,7-difluoro-1H-benzo[d]imidazol-1-yl)-N-methyl-N-(2,2,2-trifluoroethyl)acetamide] | 1590 |
| Cc1nc(-c2ccccc2)sc1Cn1c(N2CC[C@@H](F)[C@H](N)C2)nc2cc(F)ccc21 [Example 593, (3R,4R)-4-fluoro-1-(5-fluoro-1-((4-methyl-2-phenylthiazol-5-yl)methyl)-1H-benzo[d]imidazol-2-yl)piperidin-3-amine] | 2120 |
| CN(C)C(=O)Cn1c(N2CC[C@@H](F)[C@H](N)C2)nc2cc(F)cc(F)c21 [Example 594, 2-(2-((3R,4R)-3-amino-4-fluoropiperidin-1-yl)-5,7-difluoro-1H-benzo[d]imidazol-1-yl)-N,N-dimethylacetamide] | > 3750 |
| Cc1nc(C)c(Cn2c(N3CC[C@@H](F)[C@H](N)C3)nc3cc(F)ccc32)s1 [Example 596, (3R,4R)-1-(1-((2,4-dimethylthiazol-5-yl)methyl)-5-fluoro-1H-benzo[d]imidazol-2-yl)-4-fluoropiperidin-3-amine] | > 3750 |
